{
  "source": "paper PMC5529524",
  "about": "“2-Oxoadenosine induces cytotoxicity through intracellular accumulation of 2-oxo-ATP and depletion of ATP but not via the p38 MAPK pathway” (Scientific Reports, 2017)",
  "format_in_all_cases": "biochemical",
  "key": {"[1]": {"target": "T1, adenosine kinase (recombinant human ADK, rhADK) (Homo sapiens, UniProt P55263)", "T1 sequence (P55263 2-362)": "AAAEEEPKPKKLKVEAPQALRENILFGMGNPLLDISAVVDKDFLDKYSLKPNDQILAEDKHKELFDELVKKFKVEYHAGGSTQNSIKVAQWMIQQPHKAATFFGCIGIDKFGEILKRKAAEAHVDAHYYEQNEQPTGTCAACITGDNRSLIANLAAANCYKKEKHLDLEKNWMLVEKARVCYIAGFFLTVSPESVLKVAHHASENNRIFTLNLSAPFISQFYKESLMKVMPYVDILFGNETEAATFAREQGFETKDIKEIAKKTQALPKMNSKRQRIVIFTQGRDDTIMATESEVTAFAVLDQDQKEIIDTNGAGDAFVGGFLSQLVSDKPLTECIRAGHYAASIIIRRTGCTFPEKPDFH", "assay": "in vitro rhADK phosphorylation assay, HPLC of 2-oxo-AMP"}, "[2]": {"target": "T1, adenosine kinase (recombinant human ADK, rhADK)", "assay": "in vitro rhADK enzyme assay, HPLC of 2-oxo-AMP product (IC50 […] with Ado as substrate)"}, "[3]": {"target": "T1, adenosine kinase (recombinant human ADK, rhADK)", "assay": "in vitro rhADK phosphorylation assay, HPLC of monophosphate product"}},
  "data": [
    {"molecule": "Nc1[nH]c(=O)nc2c1ncn2[C@@H]1O[C@H](CO)[C@@H](O)[C@H]1O", "note": "[2-oxoadenosine, 1,2-Dihydro-2-oxoadenosine]", "values": [
      {"measurement": "in vitro rhADK phosphorylation assay, HPLC of 2-oxo-AMP", "setting": "[1]", "result": "Recombinant human ADK, ATP and nucleosides 2-oxo-Ado (a) or Ado (b) were reacted"}
    ]},
    {"molecule": "C[S+]([O-])c1ccc(-c2nc(-c3ccncc3)c(-c3ccc(F)cc3)[nH]2)cc1", "note": "(stereo not drawn) [SB203580]", "values": [
      {"measurement": "IC50", "setting": "[2]", "result": 8.6, "unit": "µM"}
    ]},
    {"molecule": "Nc1nc(Cl)nc2c1ncn2[C@@H]1O[C@H](CO)[C@@H](O)[C@H]1O", "note": "[2-chloroadenosine]", "values": [
      {"measurement": "in vitro rhADK phosphorylation assay, HPLC of monophosphate product", "setting": "[3]", "result": "Chromatograms of the reaction products of ADK with 2-Cl-Ado or AICAR showed novel peaks"}
    ]}
  ]
}
